Data on 39 compounds can be found in patent US10508077B2 (FORMA Therapeutics, Inc., priority 2015, dated 2019).

The target of this experiment is T1, Full length human recombinant HDAC8 protein (Homo sapiens, UniProt Q9BY41).
T1 construct: Full length human recombinant HDAC8 protein was expressed in baculoviral system; made in house
T1 sequence (Q9BY41 1-377): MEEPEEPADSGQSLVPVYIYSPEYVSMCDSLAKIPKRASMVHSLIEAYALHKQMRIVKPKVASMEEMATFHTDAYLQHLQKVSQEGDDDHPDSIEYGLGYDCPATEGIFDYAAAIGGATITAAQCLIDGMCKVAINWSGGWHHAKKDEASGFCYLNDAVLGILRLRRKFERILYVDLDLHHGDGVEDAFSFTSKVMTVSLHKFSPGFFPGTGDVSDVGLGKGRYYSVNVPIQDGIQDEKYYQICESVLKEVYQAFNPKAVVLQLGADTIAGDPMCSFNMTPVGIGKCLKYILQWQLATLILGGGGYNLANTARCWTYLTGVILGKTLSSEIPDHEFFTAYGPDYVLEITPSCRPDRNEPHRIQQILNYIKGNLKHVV
The experiment can be described thus: In vitro histone deacetylase assay: enzymatic HDAC8 assay, electrophoretic mobility shift. The note with it: substrate RHKK(Ac)-NH2, 1 nM enzyme, compounds listed under IC50 range headings. The class given is biochemical. Summed up:
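Readout was microfluidic mobility-shift separation of deacetylated product from fluorescent RHKK(Ac)-NH2 substrate (2 µM), after reaction with 1 nM recombinant full-length human HDAC8 at 25 °C, pH 7.5, stopped with SDS. Twelve 3-fold-spaced concentrations tested; product/sum ratios normalized to controls and fitted with a 4-parameter model for IC50.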
In general terms: In EMSA bound probe runs differently from free probe, usually more slowly.
Take `CC1(CCC(=O)NC2CCN(c3ccccc3/C=C/C(=O)NO)CC2)CC1` [Example I-143, (E)-N-hydroxy-3-(2-(4-(3-(1-methylcyclopropyl)propan-amido)piperidin-1-yl)phenyl)acrylamide]: the IC50 – broadly, the point on the concentration scale where inhibition reaches its midpoint – is below 1 µM.
Turning to `CN(CC(=O)NC1CCN(c2ccccc2/C=C/C(=O)NO)CC1)S(C)(=O)=O` [Example I-144, (E)-N-hydroxy-3-(2-(4-(2-(N-methylmethylsulfonamido)acetamido)piperidin-1-yl)phenyl)acrylamide], the IC50 was below 1 µM.
In the case of `O=C(/C=C/c1ccccc1N1CCC(NC(=O)c2cnn3c2OCCC3)CC1)NO` [Example I-145, (E)-N-(1-(2-(3-(hydroxyamino)-3-oxoprop-1-en-1-yl)phenyl)piperidin-4-yl)-6,7-dihydro-5H-pyrazolo[5,1-b][1,3]oxazine-3-carboxamide], the IC50 was below 1 µM.
Consider `O=C(/C=C/c1ccccc1N1CCC(NC(=O)CC23CCCN2CCC3)CC1)NO` [Example I-146], for which the IC50 was below 1 µM.
Consider `O=C(/C=C/c1ccccc1N1CCC(NC(=O)c2ccc3cnccc3n2)CC1)NO` [Example I-147, (E)-N-(1-(2-(3-(hydroxyamino)-3-oxoprop-1-en-1-yl)phenyl)piperidin-4-yl)-1,6-naphthyridine-2-carboxamide], for which the IC50 was below 1 µM.
As for `O=C(/C=C/c1ccccc1N1CCC(NC(=O)C2CC(F)(F)C2)CC1)NO` [Example I-149, (E)-3,3-difluoro-N-(1-(2-(3-(hydroxyamino)-3-oxoprop-1-en-1-yl)phenyl)piperidin-4-yl)cyclobutane-1-carboxamide], the IC50 is below 1 µM.
The figure for `O=C(/C=C/c1ccccc1N1CCC(NC(=O)CC2CC2)CC1)NO` [Example I-150] is below 1 µM; for `O=C(/C=C/c1ccccc1N1CCC(NC(=O)CC2CCS(=O)(=O)CC2)CC1)NO` [Example I-151, (E)-3-(2-(4-(2-(1,1-dioxidotetrahydro-2H-thiopyran-4-yl)acetamido)piperidin-1-yl)phenyl)-N-hydroxyacrylamide] it is below 1 µM.
In the case of `O=C(/C=C/c1ccccc1N1CCC(NC(=O)CSc2ccccc2)CC1)NO` [Example I-152, (E)-N-hydroxy-3-(2-(4-(2-(phenylthio)acetamido)piperidin-1-yl)phenyl)acrylamide], the IC50 was below 1 µM.
For the compound `CC(C)c1ccc(C(=O)NC2CCN(c3ccccc3/C=C/C(=O)NO)CC2)nc1` [Example I-154, (E)-N-(1-(2-(3-(hydroxyamino)-3-oxoprop-1-en-1-yl)phenyl)piperidin-4-yl)-5-isopropylpicolinamide], the IC50 was below 1 µM.
With `O=C(/C=C/c1ccccc1N1CCC(NC(=O)c2cc3ccccc3[nH]2)CC1)NO` [Example I-155], the IC50 is below 1 µM.
On to `CSc1ccc(CC(=O)NC2CCN(c3ccccc3/C=C/C(=O)NO)CC2)cc1` [Example I-156], for which the IC50 is below 1 µM.
Consider `CC(C)CCC(=O)NC1CCN(c2ccccc2/C=C/C(=O)NO)CC1` [Example I-157, (E)-N-(1-(2-(3-(hydroxyamino)-3-oxoprop-1-en-1-yl)phenyl)piperidin-4-yl)-4-methylpentanamide], for which the IC50 was below 1 µM.
On to `Cc1nc(CC(=O)NC2CCN(c3ccccc3/C=C/C(=O)NO)CC2)c(C)s1` [Example I-158, (E)-3-(2-(4-(2-(2,5-dimethylthiazol-4-yl)acetamido)piperidin-1-yl)phenyl)-N-hydroxyacrylamide], for which the concentration for half-maximal inhibition (IC50) is below 1 µM.
`O=C(/C=C/c1ccccc1N1CCC(NC(=O)c2ccoc2)CC1)NO` [Example I-159]: the IC50 was below 1 µM.
As to `O=C(/C=C/c1ccccc1N1CCC(NC(=O)c2ccc(-n3cccc3)nc2)CC1)NO` [Example I-160], the 50% inhibitory concentration (IC50) was below 1 µM.
As for `O=C(/C=C/c1ccccc1N1CCC(NC(=O)c2ccc3[nH]nnc3c2)CC1)NO` [Example I-161], the IC50 is below 1 µM.
For `CN(C)Cc1ccccc1CN1CCN(c2ccccc2/C=C/C(=O)NO)CC1` [Example I-162, (E)-3-(2-(4-(2-((dimethylamino)methyl)benzyl)piperazin-1-yl)phenyl)-N-hydroxyacrylamide], the 50% inhibitory concentration (IC50) is below 1 µM.
In the case of `O=C(/C=C/c1ccccc1N1CCN(Cc2ccc(F)cc2)CC1)NO` [Example I-163, (E)-3-(2-(4-(4-fluorobenzyl)piperazin-1-yl)phenyl)-N-hydroxyacrylamide], the half-inhibitory concentration (IC50) was below 1 µM.
As to `O=C(/C=C/c1ccccc1N1CCN(Cc2ccccc2F)CC1)NO` [Example I-164, (E)-3-(2-(4-(2-fluorobenzyl)piperazin-1-yl)phenyl)-N-hydroxyacrylamide], the IC50 was below 1 µM.
For `O=C(/C=C/c1ccccc1N1CCN(Cc2ccc(C(F)(F)F)nc2)CC1)NO` [Example I-165, (E)-N-hydroxy-3-(2-(4-((6-(trifluoromethyl)pyridin-3-yl)methyl)piperazin-1-yl)phenyl)acrylamide], the IC50 was below 1 µM.
On to `O=C(/C=C/c1ccccc1N1CCN(CCCc2ccccc2)CC1)NO` [Example I-166, (E)-N-hydroxy-3-(2-(4-(3-phenylpropyl)piperazin-1-yl)phenyl)acrylamide], for which the IC50 is below 1 µM.
With `O=C(/C=C/c1ccccc1N1CCN(CC2CCOC2)CC1)NO` (stereo not drawn) [Example I-167, (E)-N-hydroxy-3-(2-(4-((tetrahydrofuran-3-yl)methyl)piperazin-1-yl)phenyl)acrylamide], the IC50 is below 1 µM.
Then `O=C(/C=C/c1ccccc1N1CCN(Cc2ccccn2)CC1)NO` [Example I-168, (E)-N-hydroxy-3-(2-(4-(pyridin-2-ylmethyl)piperazin-1-yl)phenyl)acrylamide], with below 1 µM.
Turning to `COc1cncc(CN2CCN(c3ccccc3/C=C/C(=O)NO)CC2)c1` [Example I-169, (E)-N-hydroxy-3-(2-(4-((5-methoxypyridin-3-yl)methyl)piperazin-1-yl)phenyl)acrylamide], the IC50 is below 1 µM.
Then `O=C(/C=C/c1ccccc1N1CCN(Cc2cccc(C(F)(F)F)c2)CC1)NO` [Example I-171, (E)-N-hydroxy-3-(2-(4-(3-(trifluoromethyl)benzyl)piperazin-1-yl)phenyl)acrylamide], with below 1 µM.
As to `COc1ccc(CN2CCN(c3ccccc3/C=C/C(=O)NO)CC2)cc1` [Example I-172, (E)-N-hydroxy-3-(2-(4-(4-methoxybenzyl)piperazin-1-yl)phenyl)acrylamide], the IC50 is below 1 µM.
For the compound `O=C(/C=C/c1ccccc1N1CCN(Cc2ccc3c(c2)OC(F)(F)O3)CC1)NO` [Example I-173, (E)-3-(2-(4-((2,2-difluorobenzo[d][1,3]dioxol-5-yl)methyl)piperazin-1-yl)phenyl)-N-hydroxyacrylamide], the IC50 is below 1 µM.
As for `O=C(/C=C/c1ccccc1N1CCN(Cc2ccccc2C(F)(F)F)CC1)NO` [Example I-174, (E)-N-hydroxy-3-(2-(4-(2-(trifluoromethyl)benzyl)piperazin-1-yl)phenyl)acrylamide], the IC50 was below 1 µM.
For `O=C(/C=C/c1ccccc1N1CCN(Cc2cc3c(cc2Cl)OCO3)CC1)NO` [Example I-175, (E)-3-(2-(4-((6-chlorobenzo[d][1,3]dioxol-5-yl)methyl)piperazin-1-yl)phenyl)-N-hydroxyacrylamide], the IC50 is below 1 µM.
For `O=C(/C=C/c1ccccc1N1CCN(Cc2ccccc2OC(F)F)CC1)NO` [Example I-176, (E)-3-(2-(4-(2-(difluoromethoxy)benzyl)piperazin-1-yl)phenyl)-N-hydroxyacrylamide], the half-maximal inhibitory concentration (IC50) was below 1 µM.
Then `CCCCN1CCN(c2ccccc2/C=C/C(=O)NO)CC1` [Example I-177, (E)-3-(2-(4-butylpiperazin-1-yl)phenyl)-N-hydroxyacrylamide], with below 1 µM; and `CCCCCCN1CCN(c2ccccc2/C=C/C(=O)NO)CC1` [Example I-178, (E)-3-(2-(4-hexylpiperazin-1-yl)phenyl)-N-hydroxyacrylamide], with below 1 µM.
The figure for `Cn1ccnc1CN1CCN(c2ccccc2/C=C/C(=O)NO)CC1` [Example I-181, (E)-N-hydroxy-3-(2-(4-((1-methyl-1H-imidazol-2-yl)methyl)piperazin-1-yl)phenyl)acrylamide] is below 1 µM; for `O=C(/C=C/c1ccccc1N1CCN(CCCC(F)(F)F)CC1)NO` [Example I-184, (E)-N-hydroxy-3-(2-(4-(4,4,4-trifluorobutyl)piperazin-1-yl)phenyl)acrylamide] it is below 1 µM.
On to `Cc1csc(CN2CCN(c3ccccc3/C=C/C(=O)NO)CC2)n1` [Example I-185, (E)-N-hydroxy-3-(2-(4-((4-methylthiazol-2-yl)methyl)piperazin-1-yl)phenyl)acrylamide], for which the IC50 was below 1 µM.
On to `CN(C)CC1(CN2CCN(c3ccccc3/C=C/C(=O)NO)CC2)CCCC1` [Example I-186, (E)-3-(2-(4-((1-((dimethylamino)methyl)cyclopentyl)methyl)piperazin-1-yl)phenyl)-N-hydroxyacrylamide], for which the IC50 was below 1 µM.
Turning to `CN1CCC(C)(CN2CCN(c3ccccc3/C=C/C(=O)NO)CC2)CC1` [Example I-187, (E)-3-(2-(4-((1,4-dimethylpiperidin-4-yl)methyl)piperazin-1-yl)phenyl)-N-hydroxyacrylamide], the IC50 was below 1 µM.
Turning to `O=C(/C=C/c1ccccc1N1CCN(Cc2cn3ccccc3n2)CC1)NO` [Example I-188, (E)-N-hydroxy-3-(2-(4-(imidazo[1,2-a]pyridin-2-ylmethyl)piperazin-1-yl)phenyl)acrylamide], the IC50 was below 1 µM.
